# Assay results reported in patent US9260439B2, “Dihydropyrrolopyrimidine derivatives” (PFIZER INC., priority 2014, dated 2016).
# Where a name gives a salt, the structure may show the parent alone.
# Biological target: truncated PI3Kα (p110α/iSH2 p85α) (Homo sapiens (Human), UniProt P42336)
# Test: PI3KA_Act fluorescence polarization kinase assay (Ki)
# Type: biochemical
# Conditions: 1 mM ATP
# Summary of the method: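 Ki values result from fitting fluorescence polarization signals to the Morrison equation for tight-binding competitive inhibitors. The detector was GST-Grp1 PH domain with TAMRA-PIP3, read after a 30 min room-temperature reaction of 0.5 nM truncated PI3Kα and 30 μM PIP2 at pH 7.4 in HEPES/NaCl/MgCl2/DTT/CHAPS buffer. Compounds were tested as 12-point 3-fold dilutions from 3 μM.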
# Sequence of truncated PI3Kα (p110α/iSH2 p85α) (P42336 whole entry, the tested form may be a part): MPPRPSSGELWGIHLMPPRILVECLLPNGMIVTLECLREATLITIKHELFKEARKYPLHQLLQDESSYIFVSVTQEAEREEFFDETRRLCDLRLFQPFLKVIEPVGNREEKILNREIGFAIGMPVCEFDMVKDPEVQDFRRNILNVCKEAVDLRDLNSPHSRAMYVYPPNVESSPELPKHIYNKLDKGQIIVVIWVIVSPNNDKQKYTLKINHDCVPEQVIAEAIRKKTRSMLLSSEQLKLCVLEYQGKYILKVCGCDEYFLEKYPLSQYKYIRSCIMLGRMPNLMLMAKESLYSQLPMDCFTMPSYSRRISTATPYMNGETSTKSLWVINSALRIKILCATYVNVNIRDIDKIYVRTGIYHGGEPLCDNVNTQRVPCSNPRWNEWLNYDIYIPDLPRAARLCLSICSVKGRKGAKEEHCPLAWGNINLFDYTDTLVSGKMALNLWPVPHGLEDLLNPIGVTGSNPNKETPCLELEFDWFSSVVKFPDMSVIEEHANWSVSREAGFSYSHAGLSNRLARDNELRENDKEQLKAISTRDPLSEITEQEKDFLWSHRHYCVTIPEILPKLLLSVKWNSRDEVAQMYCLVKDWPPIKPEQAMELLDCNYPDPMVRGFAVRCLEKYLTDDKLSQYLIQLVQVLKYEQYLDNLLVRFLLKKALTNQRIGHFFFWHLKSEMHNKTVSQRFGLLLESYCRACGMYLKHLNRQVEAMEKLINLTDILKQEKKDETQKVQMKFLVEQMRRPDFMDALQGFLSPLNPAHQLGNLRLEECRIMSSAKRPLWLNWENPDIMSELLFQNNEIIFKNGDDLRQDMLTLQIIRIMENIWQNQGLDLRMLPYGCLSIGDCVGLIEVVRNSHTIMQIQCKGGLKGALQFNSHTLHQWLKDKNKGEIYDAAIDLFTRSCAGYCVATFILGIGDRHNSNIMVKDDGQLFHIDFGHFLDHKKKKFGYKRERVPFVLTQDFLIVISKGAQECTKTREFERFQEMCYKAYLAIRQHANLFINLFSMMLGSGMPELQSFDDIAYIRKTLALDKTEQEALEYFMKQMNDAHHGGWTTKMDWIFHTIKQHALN
Compound,PI3KA_Act Ki,Ki
"CNC(=O)N1CC[C@](C)(N2CCc3c(-c4cnc(N)nc4)nc(N4CCOC[C@@H]4C)nc32)C1 [Example 506, (3S)-3-{4-(2-aminopyrimidin-5-yl)-2-[(3S)-3-methylmorpholin-4-yl]-5,6-dihydro-7H-pyrrolo[2,3-d]pyrimidin-7-yl}-N,3-dimethylpyrrolidine-1-carboxamide]",0.061 nM,
"CCNC(=O)N1CC[C@](C)(N2CCc3c(-c4cnc(N)nc4)nc(N4CCOCC4)nc32)C1 [Example 507, (3S)-3-[4-(2-aminopyrimidin-5-yl)-2-(morpholin-4-yl)-5,6-dihydro-7H-pyrrolo[2,3-d]pyrimidin-7-yl]-N-ethyl-3-methylpyrrolidine-1-carboxamide]",,0.082 nM
"COC(=O)N1CC[C@](C)(N2CCc3c(-c4cnc(N)nc4)nc(N4CCOC[C@@H]4C)nc32)C1 [Example 508, methyl (3S)-3-{4-(2-aminopyrimidin-5-yl)-2-[(3S)-3-methylmorpholin-4-yl]-5,6-dihydro-7H-pyrrolo[2,3-d]pyrimidin-7-yl}-3-methylpyrrolidine-1-carboxylate]",<0.018 nM,
"COC(=O)N1CC[C@@](C)(N2CCc3c(-c4cnc(N)nc4)nc(N4CCOC[C@@H]4C)nc32)C1 [Example 509, methyl (3R)-3-{4-(2-aminopyrimidin-5-yl)-2-[(3S)-3-methylmorpholin-4-yl]-5,6-dihydro-7H-pyrrolo[2,3-d]pyrimidin-7-yl}-3-methylpyrrolidine-1-carboxylate]",0.135 nM,
"C[C@@H]1CN(C(=O)OC(C)(C)C)C[C@@]1(C)N1CCc2c(-c3cnc(N)nc3)nc(N3CCOC[C@@H]3C)nc21 [Example 510, tert-butyl (3S,4R)-3-{4-(2-aminopyrimidin-5-yl)-2-[(3S)-3-methylmorpholin-4-yl]-5,6-dihydro-7H-pyrrolo[2,3-d]pyrimidin-7-yl}-3,4-dimethylpyrrolidine-1-carboxylate]",<0.018 nM,
"C[C@H]1COCCN1c1nc(-c2cnc(N)nc2)c2c(n1)N([C@@]1(C)CN(C(=O)OC(C)(C)C)C[C@@H]1C)CC2 [Example 511, tert-butyl (3R,4S)-3-{4-(2-aminopyrimidin-5-yl)-2-[(3S)-3-methylmorpholin-4-yl]-5,6-dihydro-7H-pyrrolo[2,3-d]pyrimidin-7-yl}-3,4-dimethylpyrrolidine-1-carboxylate]",0.915 nM,
"C[C@H]1COCCN1c1nc(-c2cnc(N)nc2)c2c(n1)N([C@@]1(C)CCN(C(=O)OC(C)(C)C)C1)CC2 [Example 512, tert-butyl (3S)-3-{4-(2-aminopyrimidin-5-yl)-2-[(3S)-3-methylmorpholin-4-yl]-5,6-dihydro-7H-pyrrolo[2,3-d]pyrimidin-7-yl}-3-methylpyrrolidine-1-carboxylate]",<0.018 nM,
"C[C@H]1COCCN1c1nc(-c2cnc(N)nc2)c2c(n1)N([C@@]1(C)CCN(C)C1)CC2 [Example 513, 5-{7-[(3S)-1,3-dimethylpyrrolidin-3-yl]-2-[(3S)-3-methylmorpholin-4-yl]-6,7-dihydro-5H-pyrrolo[2,3-d]pyrimidin-4-yl}pyrimidin-2-amine]",0.418 nM,
"C[C@H]1COCCN1c1nc(-c2cnc(N)nc2)c2c(n1)N(C1(C)CCNCC1)CC2.Cl [Example 516, 5-{2-[(3S)-3-methylmorpholin-4-yl]-7-(4-methylpiperidin-4-yl)-6,7-dihydro-5H-pyrrolo[2,3-d]pyrimidin-4-yl}pyrimidin-2-amine hydrochloride]",0.346 nM,
"C[C@H]1COCCN1c1nc(-c2cnc(N)nc2)c2c(n1)N(C1(C)CCN(C(=O)OC(C)(C)C)CC1)CC2 [Example 519, tert-butyl 4-{4-(2-aminopyrimidin-5-yl)-2-[(3S)-3-methylmorpholin-4-yl]-5,6-dihydro-7H-pyrrolo[2,3-d]pyrimidin-7-yl}-4-methylpiperidine-1-carboxylate]",0.036 nM,
"C[C@H]1COCCN1c1nc(-c2cnc(N)nc2)c2c(n1)N(C1(C)CCCN(C(=O)OC(C)(C)C)C1)CC2 (stereo partly drawn) [Example 520, tert-butyl 3-{4-(2-aminopyrimidin-5-yl)-2-[(3S)-3-methylmorpholin-4-yl]-5,6-dihydro-7H-pyrrolo[2,3-d]pyrimidin-7-yl}-3-methylpiperidine-1-carboxylate]",0.663 nM,
"C[C@H]1COCCN1c1nc(-c2cnc(N)nc2)c2c(n1)N([C@H]1[C@@H]3CN(C(=O)OC(C)(C)C)C[C@@H]31)CC2 [Example 521, tert-butyl (1R,5S,6s)-6-{4-(2-aminopyrimidin-5-yl)-2-[(3S)-3-methylmorpholin-4-yl]-5,6-dihydro-7H-pyrrolo[2,3-d]pyrimidin-7-yl}-3-azabicyclo[3.1.0]hexane-3-carboxylate]",0.170 nM,
"C[C@H]1COCCN1c1nc(-c2cnc(N)nc2)c2c(n1)N([C@H]1[C@@H]3CNC[C@@H]31)CC2.Cl [Example 522, 5-{7-[(1R,5S,6s)-3-azabicyclo[3.1.0]hex-6-yl]-2-[(3S)-3-methylmorpholin-4-yl]-6,7-dihydro-5H-pyrrolo[2,3-d]pyrimidin-4-yl}pyrimidin-2-amine hydrochloride]",6.845 nM,
"C[C@H]1COCCN1c1nc(-c2cnc(N)nc2)c2c(n1)N([C@H]1[C@H]3C[C@@H]1N(C(=O)OC(C)(C)C)C3)CC2 [Example 523, tert-butyl (1S,4S,5S)-5-{4-(2-aminopyrimidin-5-yl)-2-[(3S)-3-methylmorpholin-4-yl]-5,6-dihydro-7H-pyrrolo[2,3-d]pyrimidin-7-yl}-2-azabicyclo[2.1.1]hexane-2-carboxylate]",,5.21 nM
"C[C@H]1COCCN1c1nc(-c2cnc(N)nc2)c2c(n1)N([C@@H]1[C@@H]3C[C@H]1N(C(=O)OC(C)(C)C)C3)CC2 [Example 524, tert-butyl (1R,4R,5R)-5-{4-(2-aminopyrimidin-5-yl)-2-[(3S)-3-methylmorpholin-4-yl]-5,6-dihydro-7H-pyrrolo[2,3-d]pyrimidin-7-yl}-2-azabicyclo[2.1.1]hexane-2-carboxylate]",,1.87 nM
"C[C@H]1COCCN1c1nc(-c2cnc(N)nc2)c2c(n1)N([C@H]1[C@@H]3CN[C@H]1C3)CC2 [Example 525, 5-{7-[(1S,4S,5S)-2-azabicyclo[2.1.1]hex-5-yl]-2-[(3S)-3-methylmorpholin-4-yl]-6,7-dihydro-5H-pyrrolo[2,3-d]pyrimidin-4-yl}pyrimidin-2-amine hydrochloride]",,4.5 nM
"C[C@H]1COCCN1c1nc(-c2cnc(N)nc2)c2c(n1)N([C@@H]1[C@H]3CN[C@@H]1C3)CC2 [Example 526, 5-{7-[(1R,4R,5R)-2-azabicyclo[2.1.1]hex-5-yl]-2-[(3S)-3-methylmorpholin-4-yl]-6,7-dihydro-5H-pyrrolo[2,3-d]pyrimidin-4-yl}pyrimidin-2-amine hydrochloride]",,9.43 nM
"C[C@H]1COCCN1c1nc(-c2cnc(N)nc2)c2c(n1)N([C@@]13C[C@@H]1CN(C(=O)OC(C)(C)C)C3)CC2 [Example 527, tert-butyl (1S,5R)-1-{4-(2-aminopyrimidin-5-yl)-2-[(3S)-3-methylmorpholin-4-yl]-5,6-dihydro-7H-pyrrolo[2,3-d]pyrimidin-7-yl}-3-azabicyclo[3.1.0]hexane-3-carboxylate]",<0.018 nM,
"C[C@H]1COCCN1c1nc(-c2cnc(N)nc2)c2c(n1)N([C@]13C[C@H]1CN(C(=O)OC(C)(C)C)C3)CC2 [Example 528, tert-butyl (1R,5S)-1-{4-(2-aminopyrimidin-5-yl)-2-[(3S)-3-methylmorpholin-4-yl]-5,6-dihydro-7H-pyrrolo[2,3-d]pyrimidin-7-yl}-3-azabicyclo[3.1.0]hexane-3-carboxylate]",0.092 nM,
"C[C@H]1COCCN1c1nc(-c2cnc(N)nc2)c2c(n1)N([C@@]13CNC[C@@H]1C3)CC2.Cl [Example 529, 5-{7-[(1R,5S)-3-azabicyclo[3.1.0]hex-1-yl]-2-[(3S)-3-methylmorpholin-4-yl]-6,7-dihydro-5H-pyrrolo[2,3-d]pyrimidin-4-yl}pyrimidin-2-amine hydrochloride]",0.595 nM,
"C[C@H]1COCCN1c1nc(-c2cnc(N)nc2)c2c(n1)N([C@]13CNC[C@H]1C3)CC2.Cl [Example 530, 5-{7-[(1S,5R)-3-azabicyclo[3.1.0]hex-1-yl]-2-[(3S)-3-methylmorpholin-4-yl]-6,7-dihydro-5H-pyrrolo[2,3-d]pyrimidin-4-yl}pyrimidin-2-amine hydrochloride]",2.624 nM,
"tert-butyl (cis-3-{4-(2-aminopyrimidin-5-yl)-2-[(3S)-3-methylmorpholin-4-yl]-5,6-dihydro-7H-pyrrolo[2,3-d]pyrimidin-7-yl}cyclobutyl)methylcarbamate [Example 448]",0.690 nM,
"tert-butyl (trans-3-{4-(2-aminopyrimidin-5-yl)-2-[(3S)-3-methylmorpholin-4-yl]-5,6-dihydro-7H-pyrrolo[2,3-d]pyrimidin-7-yl}cyclobutyl)methylcarbamate [Example 449]",0.294 nM,
